We go through 26 compounds from PubChem BioAssay AID330 (DTP/NCI, 2004).

In the assay the test system is P388 leukemia ip, CD2F1 mice, survival T/C. In words: NCI In Vivo Anticancer Drug Screen. Data for tumor model P388 Leukemia (intraperitoneal) in CD2F1 (CDF1) mice. The settings on record: endpoint: median survival time, higher = longer survival. Summed up: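 Mice carrying the transplanted tumor received test compound or vehicle. Survival was recorded in each group, and the value is the treated-group measurement divided by that of the vehicle-treated control group.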

The mark [1] stands for this setting: dose: 50.0 mg/kg/injection, schedule: Q01DX005 (ip), vehicle: saline with Tween-80.
The mark [2] stands for this setting: dose: 100.0 mg/kg/injection, schedule: Q01DX005 (ip), vehicle: saline with Tween-80.
[3] abbreviates: dose: 200.0 mg/kg/injection, schedule: Q01DX005 (ip), vehicle: saline with Tween-80.
[4] abbreviates: dose: 12.5 mg/kg/injection, schedule: Q01DX009 (ip), vehicle: saline with Tween-80.
Setting [5] is: dose: 25.0 mg/kg/injection, schedule: Q01DX009 (ip), vehicle: saline with Tween-80.
Setting [6] is: dose: 60.0 mg/kg/injection, schedule: Q01DX005 (ip), vehicle: saline with Tween-80.
The mark [7] stands for this setting: dose: 120.0 mg/kg/injection, schedule: Q01DX005 (ip), vehicle: saline with Tween-80.
[8] abbreviates: dose: 50.0 mg/kg/injection, schedule: Q01DX005 (ip), vehicle: saline.
[9] abbreviates: dose: 100.0 mg/kg/injection, schedule: Q01DX005 (ip), vehicle: saline.
The mark [10] stands for this setting: dose: 50.0 mg/kg/injection, schedule: Q01DX009 (ip), vehicle: Klucel (hydroxypropylcellulose) (HPC).
Where [11] appears, read: dose: 100.0 mg/kg/injection, schedule: Q01DX009 (ip), vehicle: Klucel (hydroxypropylcellulose) (HPC).
Setting [12] is: dose: 200.0 mg/kg/injection, schedule: Q01DX009 (ip), vehicle: Klucel (hydroxypropylcellulose) (HPC).
Setting [13] is: dose: 50.0 mg/kg/injection, schedule: Q01DX009 (ip), vehicle: saline with Tween-80.
Where [14] appears, read: dose: 100.0 mg/kg/injection, schedule: Q01DX009 (ip), vehicle: saline with Tween-80.
Setting [15] is: dose: 200.0 mg/kg/injection, schedule: Q01DX009 (ip), vehicle: saline with Tween-80.
[16] abbreviates: dose: 25.0 mg/kg/injection, schedule: Q01DX009 (ip), vehicle: saline.
Setting [17] is: dose: 50.0 mg/kg/injection, schedule: Q01DX009 (ip), vehicle: saline.
Setting [18] is: dose: 100.0 mg/kg/injection, schedule: Q01DX009 (ip), vehicle: saline.
[19] abbreviates: dose: 200.0 mg/kg/injection, schedule: Q01DX009 (ip), vehicle: saline.
[20] abbreviates: dose: 100.0 mg/kg/injection, schedule: Q04DX003 (ip), vehicle: saline with Tween-80.
Where [21] appears, read: dose: 200.0 mg/kg/injection, schedule: Q04DX003 (ip), vehicle: saline with Tween-80.

Where “and” joins values, the source holds several entries; their conditions need not be identical. Equal entries are not always repeated. Inconclusive results and toxic doses are left out.

Consider `CC1CC(C)/C(=N/NC(N)=S)C(C(O)CC2CC(=O)NC(=O)C2)C1` (stereo not given), for which the T/C is 109 % of control under setting [1], 105 % of control under setting [2] and 104 % of control under setting [3].
With `N=c1c2c(C(N)=O)cn(C3OC(CO)C(O)C3O)c2ncn1N` (stereo not given), for the setting “dose: 50.0 mg/kg/injection, schedule: Q01DX005 (ip), vehicle: water”, the T/C is 166 % of control.
Take `COCCCn1c(C(Cl)(Cl)Cl)nn2c(=O)c3ccccc3nc2c1=O`: the T/C (dose: 6.25 mg/kg/injection, schedule: Q01DX009 (ip), vehicle: saline with Tween-80) is 96 % of control; the T/C under setting [4] is 91 % of control; the T/C under setting [5] was 100 % of control.
`CCOC(=O)c1csc(-c2ccc(COC(=O)c3ccccc3)o2)n1`: the T/C was 100 % of control under setting [1], 96 % of control under setting [2] and 89 % of control under setting [3].
In the case of `Cc1cc(=O)oc2nn(CCO)c(C)c12`, the T/C is 105 % of control under setting [6]; 100 % of control under setting [7]; 91 % of control (dose: 240.0 mg/kg/injection, schedule: Q01DX005 (ip), vehicle: saline with Tween-80).
For the compound `CCC1(c2ccccc2)CCCC/C1=N/Nc1ccc([N+](=O)[O-])cc1[N+](=O)[O-]` (stereo not given), the T/C was 91 % of control (dose: 100.0 mg/kg/injection, schedule: Q04DX003 (ip), vehicle: Klucel (hydroxypropylcellulose) (HPC)); 92 % of control (dose: 200.0 mg/kg/injection, schedule: Q04DX003 (ip), vehicle: Klucel (hydroxypropylcellulose) (HPC)); 99 % of control (dose: 400.0 mg/kg/injection, schedule: Q04DX003 (ip), vehicle: Klucel (hydroxypropylcellulose) (HPC)).
For `O=C1CC(=O)N(CCc2ccncc2)C(=O)N1CCc1ccncc1`, the T/C was 106 % of control under setting [8] and 106 % of control under setting [9].
As for `COC(=O)CC(N)C(=O)O` (stereo not given), the T/C is 97 % of control (dose: 12.5 mg/kg/injection, schedule: Q01DX005 (ip), vehicle: saline); 89 % of control (dose: 25.0 mg/kg/injection, schedule: Q01DX005 (ip), vehicle: saline); 99 % of control under setting [8]; 97 % of control under setting [9]; 94 % of control (dose: 200.0 mg/kg/injection, schedule: Q01DX005 (ip), vehicle: saline).
In the case of `C=CC=O`, the T/C is 109 % of control (dose: 0.44 mg/kg/injection, schedule: Q01DX009 (ip), vehicle: saline); 109 % of control (dose: 0.88 mg/kg/injection, schedule: Q01DX009 (ip), vehicle: saline); 109 % of control (dose: 1.56 mg/kg/injection, schedule: Q01DX009 (ip), vehicle: saline).
With `Cc1[nH]c(=O)[nH]c(=O)c1/C=C/C(=O)NC(CO)CSCc1ccccc1` (stereo not given), the T/C by setting is: (dose: 6.25 mg/kg/injection, schedule: Q01DX009 (ip), vehicle: other) 94 % of control; (dose: 12.5 mg/kg/injection, schedule: Q01DX009 (ip), vehicle: other) 94 % of control; (dose: 25.0 mg/kg/injection, schedule: Q01DX009 (ip), vehicle: other) 94 % of control; (dose: 50.0 mg/kg/injection, schedule: Q01DX009 (ip), vehicle: other) 88 % of control; (dose: 100.0 mg/kg/injection, schedule: Q01DX009 (ip), vehicle: other) 87 % of control; (dose: 200.0 mg/kg/injection, schedule: Q01DX009 (ip), vehicle: other) 98 % of control. The T/C (dose: 400.0 mg/kg/injection, schedule: Q01DX009 (ip), vehicle: other) was 95 % of control.
Consider `Cc1ccc(NC(=S)N2CCCC2)cc1C`, for which the T/C under setting [10] was 100 % of control and 101 % of control; the T/C under setting [11] was 109 % of control; the T/C under setting [12] was 91 % of control and 98 % of control.
In the case of `CN(C=C(C#N)C#N)c1ccccc1`, the T/C by setting is: under setting [4], 103 % of control; under setting [5], 99 % of control; under setting [13], 99 % of control.
As to `O=C(c1ccncc1)c1cccc(Cl)c1`, the T/C reads like this: under setting [13], 103 % of control; under setting [14], 108 % of control; under setting [15], 104 % of control.
With `CC(=O)Nc1ccc2nc(SC(C)C)sc2c1`, the T/C reads like this: (dose: 6.25 mg/kg/injection, schedule: Q01DX009 (ip), vehicle: Klucel (hydroxypropylcellulose) (HPC)) 104 % of control; (dose: 12.5 mg/kg/injection, schedule: Q01DX009 (ip), vehicle: Klucel (hydroxypropylcellulose) (HPC)) 102 % of control; (dose: 25.0 mg/kg/injection, schedule: Q01DX009 (ip), vehicle: Klucel (hydroxypropylcellulose) (HPC)) 96 % of control.
In the case of `O=c1cc(-c2ccccc2)nc(Sc2ccc([N+](=O)[O-])cc2[N+](=O)[O-])[nH]1`, the T/C runs as follows: under setting [10], 98 % of control; under setting [11], 98 % of control; under setting [12], 93 % of control.
With `O=C1NC(c2cccc3c2OCO3)N=C2Oc3ccccc3C=C12` (stereo not given), the T/C under setting [16] was 107 % of control and 87 % of control; the T/C under setting [13] was 118 % of control; the T/C under setting [17] was 100 % of control and 107 % of control; the T/C under setting [14] was 120 % of control; the T/C under setting [18] is 106 % of control and 117 % of control; the T/C under setting [19] is 106 % of control and 117 % of control.
Regarding `Nc1ccc2c(SCCSc3c4ccccc4nc4cc(N)ccc34)c3ccccc3nc2c1`, the T/C was 97 % of control under setting [6] and 100 % of control under setting [7].
Turning to `CCC(c1ccc(OCCS(=O)(=O)Oc2ccccc2)cc1)C(CC)c1ccc(OCCS(=O)(=O)Oc2ccccc2)cc1` (stereo not given), the T/C by setting is: (dose: 100.0 mg/kg/injection, schedule: Q04DX003 (ip), vehicle: suspension in saline) 99 % of control; (dose: 200.0 mg/kg/injection, schedule: Q04DX003 (ip), vehicle: suspension in saline) 98 % of control; (dose: 400.0 mg/kg/injection, schedule: Q04DX003 (ip), vehicle: suspension in saline) 98 % of control.
For the compound `Cc1ccc2[nH]c(=O)oc(=O)c2c1`, the T/C is, setting by setting: under setting [16], 105 % of control; under setting [17], 107 % of control; (dose: 50.0 mg/kg/injection, schedule: Q04DX003 (ip), vehicle: saline with Tween-80) 100 % of control; under setting [18], 96 % of control; under setting [20], 108 % of control; under setting [19], 110 % of control. For the same compound, under setting [21], the T/C was 108 % of control.
For the compound `COc1cc(C(=O)N/N=C/c2cccc([N+](=O)[O-])c2)cc(OC)c1OC`, the T/C runs as follows: under setting [13], 102 % of control and 115 % of control; under setting [14], 123 % of control; under setting [15], 163 % of control; (dose: 400.0 mg/kg/injection, schedule: Q01DX009 (ip), vehicle: saline with Tween-80) 168 % of control.
Turning to `CCC1(C)C(C#N)C(=O)NC(=O)C1C#N` (stereo not given), the T/C runs as follows: under setting [5], 95 % of control; under setting [13], 95 % of control.
Turning to `CCOC(=O)/N=C(/NC(=O)OCC)N1CCN(c2ccnc3cc(Cl)ccc23)CC1`, the T/C under setting [1] was 98 % of control, the T/C under setting [2] was 97 % of control and the T/C under setting [3] is 91 % of control.
As to `COc1ccccc1N1C(=O)CSC1=Nc1ccccc1`, the T/C by setting is: under setting [17], 98 % of control; under setting [18], 96 % of control; under setting [19], 100 % of control.
`O=C(O)CC1C=CC2C=CC1C=C2` (stereo not given): the T/C runs as follows: under setting [1], 101 % of control; under setting [2], 100 % of control; under setting [3], 99 % of control.
For `CC(C)C1CC2CCC3C(C)(C(=O)O)CCCC3(C)C2CC1CO` (stereo not given), the T/C was 100 % of control under setting [20] and 91 % of control under setting [21].
Regarding `N[C@H](C(=O)O)[C@@H]1CC(S(=O)(=O)c2ccccc2)=NO1`, the T/C by setting is: (dose: 12.5 mg/kg/injection, schedule: Q01DX005 (ip), vehicle: distilled water + Tween-80) 102 % of control; (dose: 25.0 mg/kg/injection, schedule: Q01DX005 (ip), vehicle: distilled water + Tween-80) 102 % of control.
